# Results: ChEMBL document CHEMBL3044945, “Synthesis of 1,3,5-trisubstituted pyrazoline nucleus containing compounds and screening for antimicrobial activity” (2012)
# Columns and labels:
# Format in all cases: functional
# Penicillium chrysogenum = test: Antifungal activity against Penicillium chrysogenum MTCC 161 after 24 to 48 hr by tube dilution method
# Pseudomonas fluorescens [1] = test: Antibacterial activity against Pseudomonas fluorescens MTCC 2421 at 1250 ug/ml after 48 hr by cup-plate method; settings: MTCC 2421, 48 h, read-out: DIZ
# Micrococcus luteus [2] = test: Antibacterial activity against Micrococcus luteus MTCC 1538 at 100 ug/ml after 48 hr by cup-plate method; settings: MTCC 1538, 48 h, read-out: DIZ
# Aspergillus niger = test: Antifungal activity against Aspergillus niger MTCC 2546 at 1250 ug/ml after 48 hr by cup-plate method; settings: MTCC 2546, 48 h, read-out: DIZ
# Escherichia coli [3] = test: Antibacterial activity against Escherichia coli MTCC 1573 at 100 ug/ml after 48 hr by cup-plate method; settings: MTCC 1573, 48 h, read-out: DIZ
# Pseudomonas fluorescens [4] = test: Antibacterial activity against Pseudomonas fluorescens MTCC 2421 after 24 to 48 hr by tube dilution method
# Bacillus subtilis [5] = test: Antibacterial activity against Bacillus subtilis MTCC 441 after 24 to 48 hr by tube dilution method
# Staphylococcus aureus [6] = test: Antibacterial activity against Staphylococcus aureus MTCC 1430 after 24 to 48 hr by tube dilution method
# Bacillus subtilis [7] = test: Antibacterial activity against Bacillus subtilis MTCC 441 at 1250 ug/ml after 48 hr by cup-plate method; settings: MTCC 441, 48 h, read-out: DIZ
# Bacillus subtilis [8] = test: Antibacterial activity against Bacillus subtilis MTCC 441 at 250 ug/ml after 48 hr by cup-plate method; settings: MTCC 441, 48 h, read-out: DIZ
# Bacillus pumilus [9] = test: Antibacterial activity against Bacillus pumilus MTCC 1456 at 100 ug/ml after 48 hr by cup-plate method; settings: MTCC 1456, 48 h, read-out: DIZ
# Pseudomonas aeruginosa [10] = test: Antibacterial activity against Pseudomonas aeruginosa MTCC 424 at 1250 ug/ml after 48 hr by cup-plate method; settings: MTCC 424, 48 h, read-out: DIZ
# Escherichia coli [11] = test: Antibacterial activity against Escherichia coli MTCC 1573 at 750 ug/ml after 48 hr by cup-plate method; settings: MTCC 1573, 48 h, read-out: DIZ
# Pseudomonas aeruginosa [12] = test: Antibacterial activity against Pseudomonas aeruginosa MTCC 424 at 500 ug/ml after 48 hr by cup-plate method; settings: MTCC 424, 48 h, read-out: DIZ
# Pseudomonas aeruginosa [13] = test: Antibacterial activity against Pseudomonas aeruginosa MTCC 424 at 1000 ug/ml after 48 hr by cup-plate method; settings: MTCC 424, 48 h, read-out: DIZ
# Bacillus pumilus [14] = test: Antibacterial activity against Bacillus pumilus MTCC 1456 at 1000 ug/ml after 48 hr by cup-plate method; settings: MTCC 1456, 48 h, read-out: DIZ
# Pseudomonas fluorescens [15] = test: Antibacterial activity against Pseudomonas fluorescens MTCC 2421 at 1000 ug/ml after 48 hr by cup-plate method; settings: MTCC 2421, 48 h, read-out: DIZ
# Escherichia coli [16] = test: Antibacterial activity against Escherichia coli MTCC 1573 after 24 to 48 hr by tube dilution method
# Staphylococcus aureus [17] = test: Antibacterial activity against Staphylococcus aureus MTCC 1430 at 750 ug/ml after 48 hr by cup-plate method; settings: MTCC 1430, 48 h, read-out: DIZ
# Bacillus subtilis [18] = test: Antibacterial activity against Bacillus subtilis MTCC 441 at 500 ug/ml after 48 hr by cup-plate method; settings: MTCC 441, 48 h, read-out: DIZ
# Bacillus subtilis [19] = test: Antibacterial activity against Bacillus subtilis MTCC 441 at 1000 ug/ml after 48 hr by cup-plate method; settings: MTCC 441, 48 h, read-out: DIZ
# Pseudomonas fluorescens [20] = test: Antibacterial activity against Pseudomonas fluorescens MTCC 2421 at 500 ug/ml after 48 hr by cup-plate method; settings: MTCC 2421, 48 h, read-out: DIZ
# Pseudomonas aeruginosa [21] = test: Antibacterial activity against Pseudomonas aeruginosa MTCC 424 at 250 ug/ml after 48 hr by cup-plate method; settings: MTCC 424, 48 h, read-out: DIZ
# Escherichia coli [22] = test: Antibacterial activity against Escherichia coli MTCC 1573 at 1250 ug/ml after 48 hr by cup-plate method; settings: MTCC 1573, 48 h, read-out: DIZ
# Escherichia coli [23] = test: Antibacterial activity against Escherichia coli MTCC 1573 at 250 ug/ml after 48 hr by cup-plate method; settings: MTCC 1573, 48 h, read-out: DIZ
# Escherichia coli [24] = test: Antibacterial activity against Escherichia coli MTCC 1573 at 500 ug/ml after 48 hr by cup-plate method; settings: MTCC 1573, 48 h, read-out: DIZ
# Micrococcus luteus [25] = test: Antibacterial activity against Micrococcus luteus MTCC 1538 at 1250 ug/ml after 48 hr by cup-plate method; settings: MTCC 1538, 48 h, read-out: DIZ
smiles,measurement,setting,value
O=[N+]([O-])c1ccc(C2CC(c3cccc4ccccc34)=NN2c2ccc([N+](=O)[O-])cc2[N+](=O)[O-])cc1 (configuration not stated),MIC,Penicillium chrysogenum,50 µg/mL
same,zone of inhibition at 1250 µg/mL,Pseudomonas fluorescens [1],25 mm
same,zone of inhibition at 100 µg/mL,Micrococcus luteus [2],8 mm
same,zone of inhibition at 1250 µg/mL,Aspergillus niger,23 mm
same,zone of inhibition at 100 µg/mL,Escherichia coli [3],9 mm
same,MIC,Pseudomonas fluorescens [4],150 µg/mL
same,MIC,Bacillus subtilis [5],50 µg/mL
same,MIC,Staphylococcus aureus [6],150 µg/mL
same,zone of inhibition at 1250 µg/mL,Bacillus subtilis [7],16 mm
same,zone of inhibition at 250 µg/mL,Bacillus subtilis [8],12 mm
same,zone of inhibition at 100 µg/mL,Bacillus pumilus [9],10 mm
same,zone of inhibition at 1250 µg/mL,Pseudomonas aeruginosa [10],17 mm
same,zone of inhibition at 750 µg/mL,Escherichia coli [11],12 mm
same,zone of inhibition at 500 µg/mL,Pseudomonas aeruginosa [12],12 mm
same,zone of inhibition at 1000 µg/mL,Pseudomonas aeruginosa [13],14 mm
same,zone of inhibition at 1000 µg/mL,Bacillus pumilus [14],22 mm
same,zone of inhibition at 1000 µg/mL,Pseudomonas fluorescens [15],22 mm
same,MIC,Escherichia coli [16],150 µg/mL
same,zone of inhibition at 750 µg/mL,Staphylococcus aureus [17],10 mm
same,zone of inhibition at 500 µg/mL,Bacillus subtilis [18],13 mm
same,zone of inhibition at 1000 µg/mL,Bacillus subtilis [19],15 mm
same,zone of inhibition at 500 µg/mL,Pseudomonas fluorescens [20],18 mm
same,zone of inhibition at 250 µg/mL,Pseudomonas aeruginosa [21],11 mm
same,zone of inhibition at 1250 µg/mL,Escherichia coli [22],17 mm
same,zone of inhibition at 250 µg/mL,Escherichia coli [23],10 mm
same,zone of inhibition at 500 µg/mL,Escherichia coli [24],11 mm
same,zone of inhibition at 1250 µg/mL,Micrococcus luteus [25],14 mm
